The values that follow come from ChEMBL document CHEMBL4190370, “Emerging New Targets for the Treatment of Resistant Fungal Infections” (J Med Chem, 2018).

Values after ≈ are worked out from the molar mass of the structure shown. A value given as a limit tells only on which side of the number the result lay.

Test [1] concerns Candida albicans. The experiment in a line: Antifungal activity against Candida albicans. The format is functional.
The test system of test [2] is Candida albicans. Put plainly: Antifungal activity against Candida albicans ATCC 10231 after 24 hrs by CLSI protocol based method. The class given is functional. The note with it: ATCC 10231, 24 h.
Test [3] concerns Aspergillus fumigatus. The experiment in a line: Antifungal activity against Aspergillus fumigatus ATCC 46645 after 24 hrs. The format is functional. The note with it: ATCC 46645, 24 h.
For test [4], the system named is Candida albicans. The experiment in a line: Inhibition of Cch1 in Candida albicans isolate 16 assessed as potentiation of fluconazole-induced antifungal activity by measuring fractional inhibitory concentration index after 24 hrs by checkerboard assay.
Test [5] deals with Candida albicans. Put plainly: Inhibition of Cch1 in Candida albicans isolate 10 assessed as potentiation of fluconazole-induced antifungal activity by measuring fractional inhibitory concentration index after 24 hrs by checkerboard assay.
In test [6] the test system is Candida tropicalis. The experiment in a line: Antifungal activity against Candida tropicalis KKP 334 by CLSI protocol based method. The class given is functional.
Test [7] concerns Cryptococcus neoformans. Put plainly: Antifungal activity against Cryptococcus neoformans H99 after 48 hrs. The format is functional. The note with it: var grubii H99 .
For test [8], the system named is Cryptococcus neoformans. The experiment in a line: Antifungal activity against Cryptococcus neoformans H99 serotype A after 72 hrs by microdilution method. The class given is functional, Cryptococcus neoformans var. grubii H99. (In general: In broth dilution the organism is exposed to a series of concentrations in liquid medium.)
A short description of test [9]: Inhibition of Aspergillus fumigatus AGM1.
For test [10], the system named is Kluyveromyces marxianus. The experiment in a line: Antifungal activity against Candida kefyr. The class given is functional.

`CCOC(=O)c1ccccc1S(=O)(=O)NC(=O)Nc1nc(Br)cc(OC)n1` came in with an MIC90 in [1] of 0.72 µg/mL (≈ 1.57 µM).
In turn, `O=C(O)C[C@]1(C(=O)O)OC1C(=O)O` (stereo partly drawn) returned an MIC in [2] greater than 512 µg/mL.
With `CC1=C(O)C(=O)C=C2C1=CC=C1[C@@]2(C)CC[C@@]2(C)[C@@H]3C[C@](C)(C(=O)O)CC[C@]3(C)CC[C@]12C` [CELASTROL], in test [3], the MIC is 2 µM (≈ 0.901 µg/mL).
Turning to `Fc1ccc(C(c2ccc(F)cc2)N2CCN(C/C=C/c3ccccc3)CC2)cc1`, the fractional inhibitory concentration index (FICI) in [4] and in [5] was 0.017 to 0.035 in each case.
With `COC(=O)C1=C(C)NC(C)=C(C(=O)OC2CCCN(Cc3ccccc3)C2)C1c1cccc([N+](=O)[O-])c1` (stereo not drawn), the fractional inhibitory concentration index (FICI) in test [4] and in test [5] was 0.017 to 0.035 each time.
Turning to `COC(=O)c1ccc(C[C@@H](C(=O)OC)[C@@H](O)C(=O)OC)cc1`, the MIC in [6] was 1000 µg/mL (≈ 3220 µM).
Turning to `Cc1nn(-c2ccccc2)c2nc(C(F)(F)F)cc(O)c12`, the MIC80 in test [7] was in the range of 32 to 64 µg/mL (≈ 109 to 218 µM).
`C=CC[C@@H]1/C=C(\C)C[C@H](C)C[C@H](OC)[C@H]2O[C@@](O)(C(=O)C(=O)N3CCCC[C@H]3C(=O)O[C@H](/C(C)=C/[C@@H]3CC[C@@H](O)[C@H](OC)C3)[C@H](C)[C@@H](O)CC1=O)[C@H](C)C[C@@H]2OC` [TACROLIMUS ANHYDROUS] registered an MIC in test [8] of 0.01 µg/mL (≈ 0.0124 µM).
In test [8], `C/C=C/C[C@@H](C)[C@@H](O)[C@H]1C(=O)N[C@@H](CC)C(=O)N(C)CC(=O)N(C)[C@@H](CC(C)C)C(=O)N[C@@H](C(C)C)C(=O)N(C)[C@@H](CC(C)C)C(=O)N[C@@H](C)C(=O)N[C@H](C)C(=O)N(C)[C@@H](CC(C)C)C(=O)N(C)[C@@H](CC(C)C)C(=O)N(C)[C@@H](C(C)C)C(=O)N1C` [CYCLOSPORINE] displayed an MIC of 0.39 µg/mL (≈ 0.324 µM).
In the case of `NC(Cc1cc(O)c(O)cc1O)C(=O)O` (stereo not drawn), inhibition in test [9] was half-maximal at 58 µM (IC50).
In test [10], `N[C@@H](CC(=O)CO)C(=O)O` showed an MIC of 6.25 to 12.5 µg/mL (≈ 42.5 to 85 µM).

For orientation: MIC90 means an inhibitory concentration at the 90% level, which refers to growth in some studies and to a panel of isolates in others. Low readings indicate higher susceptibility, high ones lower susceptibility. Usually MIC stands for the lowest concentration that inhibits growth of the organism. Low readings indicate greater potency, high ones weaker potency. A word on the MIC80: it is an inhibitory concentration at the 80% level, which refers to growth in some studies and to a panel of isolates in others. A high value points to weaker potency. As a reminder, the IC50 is the concentration needed to halve the response being measured.
